Source: US20100184711A1, “Alpha-GLYCOSYL THIOLS AND alpha-S-LINKED GLYCOLIPIDS” (UNIVERSITY COLLEGE DUBLIN, NATIONAL UNIVERSITY OF IRELAND, …, priority 2008, published 2010)

Test system: iNKT cells
Experiment: iNKT cells co-cultured with CD1d+ cells, cytokine release
Assay type: cell-based
Description: iNKT cells were treated with an α-S-linked galactosylceramide (alpha-GalCer) to determine immunostimulatory activity. FIGS. 4 and 5 show the amounts of interferon-gamma and IL-4 released (expressed as a fold-increase over the levels produced in responses to the mock-transfected cells alone) in 5 experiments. Cytokine was released when iNKT cells were co-cultured with CD1d+ cells in the absence of added glycolipid (second bar). This was enhanced for both cytokines when alpha-GalCer was added and blocked using an antibody specific for CD1d.

[1] = iNKT cells co-cultured with CD1d+ cells, compared with no added glycolipid, 5 experiments, FIGS. 4 and 5

SMILES: CCCCCCCCCCCCCCCCCCCCCCCCCC(=O)N[C@@H](CO[C@H]1O[C@H](CO)[C@H](O)[C@H](O)[C@H]1O)[C@H](O)[C@H](O)CCCCCCCCCCCCCC [alpha-GalCer]
- effect of antibody specific for CD1d on glycolipid-induced cytokine release (iNKT cells co-cultured with CD1d+ cells plus anti-CD1d antibody, both cytokines): blocked
- IL-4 released (fold-increase over the levels produced in response to mock-transfected cells alone) [1]: enhanced
- interferon-gamma released (fold-increase over the levels produced in response to mock-transfected cells alone) [1]: enhanced
